pEC50: −log10 of the molar value. Read-outs that look alike come from different tables or passages of the source.
Legend:
human alpha 7-wt nAChR [1] = biological target: T1, human alpha 7-wt nAChR (Homo sapiens, UniProt P36544); assay: Patch-clamp current recording (whole-cell voltage-clamp, GH4C1 cells); assay type: cell-based; design: key: Type 0 compounds minimally change the effect size of the current elicited by 1 mM choline.; Type 1 compounds enhance the effect size of the current elicited by 1 mM choline but minimally alter the kinetics of the receptor.; Type 2 compounds enhance the effect size of the current elicited by 1 mM choline while reducing the rate and/or the extent of desensitization.; Type 3 compounds enhance the effect size of the current elicited by 1 mM choline. When tested at higher concentrations up to 10 µM they completely inhibit desensitization; Type 4 compounds allow for an initial desensitization of the receptor followed by a re-opening of the receptor during agonist application; conditions: current elicited by 1 mM choline
T1 construct: expressed in transfected cells
Method: The compounds of the present invention are classified as type 1-4, based on qualitative kinetic properties, as determined by whole-cell voltage-clamp recordings. This classification is based on the effect of an alpha 7 PAM compound, as described hereinbefore, on the signal elicited by an agonist application. In particular, said agonist is choline at a concentration of 1mM. In a preferred experimental setting, said alpha 7 PAM compound and choline are simultaneously applied to the cell, as described hereinafter. Desensitization is defined as the closure of the receptor upon activation during the application of the agonist in whole-cell voltage-clamp electrophysiology measurements seen as the reduction of the […] current after initial activation by the agonist.
The definition of the PAM types 1-4 is described hereinafter: Type 0 compounds minimally change the effect size of the current elicited by 1 mM choline. Type 1 compounds enhance the effect size of the current elicited by 1 mM choline but minimally alter the kinetics of the receptor. In particular, the rate and the extent of desensitization and of deactivation of the receptor elicited by the agonist is not affected. The compound-modulated response to 1 mM choline, therefore, is close to a linear scaling of the 1 mM choline response in absence of the alpha 7 PAM compound: Type 2 compounds enhance the effect size of the current elicited by 1 mM choline while reducing the rate and/or the extent of desensitization. Deactivation of the receptor is generally unaffected. Type 3 compounds enhance the effect size of the current elicited by 1 mM choline. […] Deactivation of the receptor may be slowed down. Type 4 compounds allow for an initial desensitization of the receptor followed by a re-opening of the receptor during agonist application. At low-potency concentrations of the alpha 7 PAM compound, the agonist-induced activation, which is followed by desensitization, can still be separated from the compound-induced re-opening as an initial inward current-maximum. At higher potency concentrations of the alpha 7 PAM compound, the re-opening occurs faster than the closure due to desensitization so that the initial current-maximum disappears.
A compound was considered to have interesting PAM-like activity when the potentiation of the peak current was at least 200% compared to the control choline response (= 100%). Such compounds are classified as belonging to a particular PAM type in the Experimental Part. Compounds not meeting the condition are not classified as belonging to a particular PAM-type.
The compounds also have a potentiating effect on the response to choline when measured by whole-cell patch clamp electrophysiology in GH4C1 cells stably over-expressing the human wild-type alpha 7 receptor.
Example D.2 : Patch-clamp current recording
Patch-clamp recording from mammalian cells has provided a powerful means of assessing the function of membrane-bound proteins thought to be subunits of ligand-gated ion channels. Activation of such proteins by endogenous or exogenous ligands cause opening of a pore associated with the receptor through which ions flow down their electrochemical gradient. In the case of the human alpha 7-wt nAChR-expressing GH4C1 recombinant cell line the preferential permeability to calcium of this receptor means that calcium flows into the cell upon activation by ACh, choline and other nicotinic ligands giving rise to a calcium current. Since this receptor rapidly desensitizes in the presence of agonist it is important that an application system is used which is capable of very rapid switching of solutions (< 100 ms) to prevent partial or full desensitisation of receptor responses coincident with the time of agonist application. Consequently, a second convenient technique to assess the enhancement of nicotinic efficacy is a patch-clamp recording from human alpha 7-wt nAChR-expressing GH4C1 cells coupled with a rapid-application system. […]

human alpha 7-wt nAChR [2] = biological target: T1, human alpha 7-wt nAChR; assay: Ca2+ flux imaging (FDSS) (protocol B); assay type: cell-based; conditions: for EC50: read-out: pEC50 (converted); for Emax: read-out: % Efficacy
Summary of the method: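 Fluo-4AM-loaded (2 µM) cells expressing human α7-wt nAChR in HEPES-HBSS with 5 mM CaCl2. Compounds (0.01–30 µM) were added, possibly 10 min before, with choline 100 µM, and peak fluorescence was monitored by FDSS. Potentiation was relative to the choline response, set as 100%; EC50 came from sigmoidal curves.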

T1 sequence (P36544 23-502): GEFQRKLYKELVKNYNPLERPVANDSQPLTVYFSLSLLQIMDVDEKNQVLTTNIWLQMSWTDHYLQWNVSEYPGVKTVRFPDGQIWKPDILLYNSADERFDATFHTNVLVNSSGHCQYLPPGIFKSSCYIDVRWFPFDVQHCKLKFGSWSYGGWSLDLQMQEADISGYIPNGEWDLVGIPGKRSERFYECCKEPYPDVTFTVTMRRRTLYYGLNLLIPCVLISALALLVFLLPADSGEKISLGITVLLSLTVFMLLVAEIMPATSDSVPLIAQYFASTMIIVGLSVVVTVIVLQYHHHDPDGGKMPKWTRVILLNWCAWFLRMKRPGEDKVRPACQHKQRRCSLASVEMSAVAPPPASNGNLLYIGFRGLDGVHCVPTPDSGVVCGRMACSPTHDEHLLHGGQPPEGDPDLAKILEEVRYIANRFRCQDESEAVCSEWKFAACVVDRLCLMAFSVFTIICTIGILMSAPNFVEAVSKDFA

| Compound | PAM type (human alpha 7-wt nAChR [1]) | EC50 (human alpha 7-wt nAChR [2]; Ca2+ assay as described in D.1) [nM] | Emax (human alpha 7-wt nAChR [2]; Ca2+ assay as described in D.1) [%] | pEC50 (human alpha 7-wt nAChR [2]) | Emax (human alpha 7-wt nAChR [2]) [%] |
| --- | --- | --- | --- | --- | --- |
| Cc1cc(-c2ccc(N3C[C@@H](C)O[C@@H](C)C3)cc2CNC(=O)CC2CC2)cc(C)n1 [Compound 1, N-[[5-[(2R,6S)-2,6-dimethyl-4-morpholinyl]-2-(2,6-dimethyl-4-pyridinyl)phenyl]methyl]-cyclopropaneacetamide] | 3 | 40.7 |  |  |  |
| Cc1cc(-c2ccc(N3C[C@@H](C)O[C@@H](C)C3)cc2CNC(=O)C(C)C)cc(C)n1 [Compound 2, N-[[5-[(2R,6S)-2,6-dimethyl-4-morpholinyl]-2-(2,6-dimethyl-4-pyridinyl)phenyl]methyl]-2-methyl-propanamide] | 2 | 37.2 | 817 |  |  |
| Cc1cc(-c2ccc(N3C[C@@H](C)O[C@@H](C)C3)cc2CNC(=O)c2cc(C)on2)cc(C)n1 [Compound 3] | 1 |  |  | 6.34 |  |
| Cc1cc(-c2ccc(N3C[C@@H](C)O[C@@H](C)C3)cc2CNC(=O)c2conc2C)cc(C)n1 [Compound 4] | 2 | 45.7 |  |  |  |
| Cc1cc(-c2ccc(N3C[C@@H](C)O[C@@H](C)C3)cc2CNC(=O)C2CC2)cc(C)n1 [Compound 6] | 2 | 120 |  |  |  |
| Cc1cc(-c2c(F)cc(N3C[C@@H](C)O[C@@H](C)C3)cc2CNC(=O)C2CCOCC2)cc(C)n1 [Compound 86] | 3 | 148 |  |  |  |
| Cc1cc(-c2c(F)cc(N3C[C@@H](C)O[C@@H](C)C3)cc2CNC(=O)C2CC2)ccn1 [Compound 88] | 2 | 209 |  |  | 868 |
| Cc1cc(-c2c(F)cc(N3C[C@@H](C)O[C@@H](C)C3)cc2CNC(=O)C(C)C)ccn1 [Compound 89] | 2 | 72.4 |  |  |  |
| Cc1cc(-c2c(F)cc(N3C[C@@H](C)O[C@@H](C)C3)cc2CNC(=O)c2conc2C)ccn1 [Compound 91] | 2 | 61.7 |  |  |  |
| Cc1cc(-c2c(F)cc(N3CCO[C@@H](C(F)(F)F)C3)cc2CNC(=O)C(C)C)cc(C)n1 [Compound 99] | 3 | 9.77 |  |  | 292 |
| Cc1cc(-c2c(F)cc(N3CCO[C@@H](C(F)(F)F)C3)cc2CNC(=O)c2cc(C)on2)cc(C)n1 [Compound 100] | 2 | 155 |  |  |  |
| Cc1cc(-c2c(F)cc(N3CCO[C@@H](C(F)(F)F)C3)cc2CNC(=O)C2CC2)cc(C)n1 [Compound 102] | 3 | 33.1 |  |  | 962 |
| Cc1cc(-c2c(F)cc(N3CCO[C@@H](C(F)(F)F)C3)cc2CNC(=O)c2conc2C)cc(C)n1 [Compound 103] | 3 | 16.6 |  |  | 796 |
| Cc1cc(-c2c(F)cc(N3CCO[C@@H](C(F)(F)F)C3)cc2CNC(=O)CC2CC2)cc(C)n1 [Compound 104] | 3 | 9.12 |  |  |  |
| Cc1cc(-c2c(F)cc(N3CCO[C@H](C(F)(F)F)C3)cc2CNC(=O)CC2CCC2)cc(C)n1 [Compound 105] | 3 | 17 |  |  | 559 |
| Cc1cc(-c2c(F)cc(N3CCO[C@H](C(F)(F)F)C3)cc2CNC(=O)c2conc2C)cc(C)n1 [Compound 106] | 2 | 36.3 |  |  | 159 |
| Cc1cc(-c2c(F)cc(N3CCO[C@H](C(F)(F)F)C3)cc2CNC(=O)C(C)C)cc(C)n1 [Compound 107] | 2 | 30.9 |  |  | 266 |
| Cc1cc(-c2c(F)cc(N3CCO[C@H](C(F)(F)F)C3)cc2CNC(=O)CC2CC2)cc(C)n1 [Compound 108] | 2 | 18.6 |  |  | 432 |
| Cc1cc(-c2c(F)cc(N3CCO[C@H](C(F)(F)F)C3)cc2CNC(=O)C2CC2)cc(C)n1 [Compound 109] | 3 | 81.3 |  |  | 258 |

| Compound | PAM type (human alpha 7-wt nAChR [1]) | EC50 (human alpha 7-wt nAChR [2]; Ca2+ assay as described in D.1) [nM] | Emax (human alpha 7-wt nAChR [2]; Ca2+ assay as described in D.1) [%] | pEC50 (human alpha 7-wt nAChR [2]) | Emax (human alpha 7-wt nAChR [2]) [%] |
| --- | --- | --- | --- | --- | --- |
| Cc1cc(-c2c(F)cc(N3CCO[C@H](C(F)(F)F)C3)cc2CNC(=O)CC(C)C)cc(C)n1 [Compound 110] | 3 | 5.01 |  |  | 384 |
| Cc1cc(-c2c(F)cc(N3CCO[C@H](C(F)(F)F)C3)cc2CNC(=O)c2cc(C)on2)cc(C)n1 [Compound 111] | 1 | 331 |  |  | 550 |
| Cc1cc(-c2c(F)cc(N3CCOC(C)C3)cc2CNC(=O)c2cc(C)on2)cc(C)n1 (stereo not drawn) [Compound 112] | 2 | 1070 |  |  | 443 |
| Cc1cc(-c2c(F)cc(N3CCOC(C)C3)cc2CNC(=O)C(C)C)cc(C)n1 (stereo not drawn) [Compound 113] | 2 | 89.1 |  |  | 284 |
| Cc1cc(-c2c(F)cc(N3CCOC(C)C3)cc2CNC(=O)CC2CC2)cc(C)n1 (stereo not drawn) [Compound 114] | 3 | 158 |  |  | 415 |
| Cc1cc(-c2c(F)cc(N3CCOC(C)C3)cc2CNC(=O)C2CC2)cc(C)n1 (stereo not drawn) [Compound 115] | 2 | 525 |  |  | 232 |
| Cc1cc(-c2c(F)cc(N3CCOC(C)C3)cc2CNC(=O)CC(C)C)cc(C)n1 (stereo not drawn) [Compound 116] | 3 | 20.9 |  |  | 374 |
| Cc1cc(-c2c(F)cc(N3CCOC(C)C3)cc2CNC(=O)CC2CCC2)cc(C)n1 (stereo not drawn) [Compound 118] | 3 | 23.4 |  |  | 485 |
| Cc1cc(-c2c(Cl)cc(N3C[C@@H](C)O[C@@H](C)C3)cc2CNC(=O)CC2CC2)cc(C)n1 [Compound 119] | 2 | 28.8 |  |  | 624 |
| Cc1cc(-c2c(Cl)cc(N3C[C@@H](C)O[C@@H](C)C3)cc2CNC(=O)c2cc(C)on2)cc(C)n1 [Compound 120] | 1 | 661 |  |  |  |
| Cc1cc(-c2c(Cl)cc(N3C[C@@H](C)O[C@@H](C)C3)cc2CNC(=O)C(C)C)cc(C)n1 [Compound 121] | 2 | 38 |  |  | 435 |
| Cc1cc(-c2c(F)cc(N3C[C@@H](C)O[C@@H](C)C3)c(F)c2CNC(=O)c2cc(C)on2)cc(C)n1 [Compound 123] | 0 | 631 |  |  |  |
| Cc1cc(-c2c(F)cc(N3C[C@@H](C)O[C@@H](C)C3)c(F)c2CNC(=O)CC2CC2)cc(C)n1 [Compound 124] | 2 | 347 |  |  |  |
| Cc1cc(-c2cc(F)c(N3C[C@@H](C)O[C@@H](C)C3)cc2CNC(=O)CC2CC2)cc(C)n1 [Compound 125] | 2 | 263 |  |  | 451 |
| Cc1cc(-c2cc(F)c(N3C[C@@H](C)O[C@@H](C)C3)cc2CNC(=O)C2CC2)cc(C)n1 [Compound 126] | 2 | 575 |  |  | 352 |
| Cc1cc(-c2cc(F)c(N3C[C@@H](C)O[C@@H](C)C3)cc2CNC(=O)c2cc(C)on2)cc(C)n1 [Compound 127] | 1 | 550 |  |  | 554 |
| Cc1cc(-c2cc(F)c(N3C[C@@H](C)O[C@@H](C)C3)cc2CNC(=O)C(C)C)cc(C)n1 [Compound 128] | 2 | 295 |  |  | 329 |
| Cc1cc(-c2ccc(N3CC4CCC(C3)O4)cc2CNC(=O)C2CC2)cc(C)n1 [Compound 131] | 2 | 631 |  |  | 269 |

Reference: patent EP2678315B1, “(Pyridin-4-yl)benzylamides as allosteric modulators of alpha 7 nAChR” (Janssen Pharmaceutica, N.V., priority 2011, dated 2012)
